Tests used:
A2780 cells = experiment: MTT reduction assay on A2780 cells; type: cell-based; conditions: maximal inhibition; 4 h treatment; maximum concentration 100 µM
Method: For MTT assays, 4 × 10^3 A2780 cells were plated into 96-well plates, and for SRB assays, 1.5 × 10^3 A2780 cells were plated into 96-well plates. Cells were treated with the compounds in the concentrations indicated for either 4 h for an MTT assay or for 48 h for an SRB assay. Data are represented as average ± SD, from four biological replicates, with the exception of the MTT dataset of Ir-2b and the SRB datasets of 2b, Ru/Ir-2b, and Ir-3a, which were derived from three biological replicates. Individual assays were performed in duplicate. Values were normalized for vehicle-treated cells, and the absorbance for vehicle-treated cells equals 1. Data are represented as fold change compared to vehicle-treated controls. Normality was assessed using the D'Agostino-Pearson test. Statistical significance was assessed using a two-way ANOVA test followed by Tukey's post hoc test. For better visibility, normality, transformations, statistical tests, and p values are presented in an MS Excel sheet at https://figshare.com/s/3a0aa60b66f3f746f41e. Color code: black-free ligand (2a,b or 3a), khaki-ruthenium complex (Ru-2a,b or Ru-3a), green-iridium complex (Ir-2a,b or Ir-3a).  FIGURE 5 The ruthenium, osmium, and iridium complexes of ligands 4a, 4b, and 5a decrease MTT reduction. For MTT assays, 4 × 10^3 A2780 cells, 3 × 10^3 ID8 cells, or 6 × 10^3 human primary fibroblasts were plated into 96-well plates. Cells were treated with the compounds in the concentrations indicated for 4 h. Data are represented as average ± SD, from four biological replicates on A2780, and from three biological replicates on ID8 and human primary fibroblasts. For the datasets of 5a and Os-5a on human primary fibroblasts, the data represent four biological replicates. Individual assays were performed in duplicate. Values were normalized for vehicle-treated cells, and the absorbance for vehicle-treated cells equals 1. Normality was assessed using the D'Agostino-Pearson test. Statistical significance was assessed using a two-way ANOVA test followed by Tukey's post hoc test. For better visibility, normality, transformations, statistical tests, and p values are presented in an MS Excel sheet at https://figshare.com/s/3a0aa60b66f3f746f41e. Color code: black-free ligand (4a,b or 5a), khaki-ruthenium complex (Ru-4a,b), green-iridium complex (Ir-4a,b), blue-osmium complex (Os-4a,b or Os-5a), and red-rhodium complex (Rh-4a,b). An MTT reduction assay measures the activity of mitochondrial complex I and can be used to detect toxicity ([[…] et al., 2016]). The assay was performed in a manner similar to that described by [[…] et al. (2023b)]. Briefly, cells were plated into 96-well plates the day before the assay. Cells were treated with the compounds for 4 h; then, MTT was added to a 0.5 mg/mL final concentration, and cells were incubated at 37°C in a cell incubator for 40-60 min, as a function of the cell line being assessed. The culture medium was removed, the reduced MTT dye was dissolved in dimethylsulfoxide, and plates were measured in a plate photometer (Thermo Scientific Multiscan GO spectrophotometer, Waltham, MA, United States) at 540 nm. Certain wells were designated to contain vehicle-treated cells on each plate. In calculations, the readings for these wells were considered to 1, and all readings were expressed relative to these values. Statistical analysis was performed using version 8.0.1 of GraphPad Prism. Values were tested for normal distribution using the D'Agostino-Pearson or Shapiro-Wilk normality tests. When necessary, values were log-normalized or normalized using the Box-Cox or two-step normalization method ([Box and Cox, 1964]), as indicated in the MS Excel file listing the values at https://figshare.com/s/3a0aa60b66f3f746f41e. The following statistical test, post hoc test, and the level of significance are indicated in the MS Excel file listing the values at https://figshare.com/s/3a0aa60b66f3f746f41e. […]

[1] = test system: human primary dermal fibroblasts; experiment: MTT reduction assay on human primary dermal fibroblasts; type: cell-based; conditions: maximal inhibition; 4 h treatment; maximum concentration 100 µM
Method: FIGURE 5 The ruthenium, osmium, and iridium complexes of ligands 4a, 4b, and 5a decrease MTT reduction. For MTT assays, 4 × 10^3 A2780 cells, 3 × 10^3 ID8 cells, or 6 × 10^3 human primary fibroblasts were plated into 96-well plates. Cells were treated with the compounds in the concentrations indicated for 4 h. Data are represented as average ± SD, from four biological replicates on A2780, and from three biological replicates on ID8 and human primary fibroblasts. For the datasets of 5a and Os-5a on human primary fibroblasts, the data represent four biological replicates. Individual assays were performed in duplicate. Values were normalized for vehicle-treated cells, and the absorbance for vehicle-treated cells equals 1. Normality was assessed using the D'Agostino-Pearson test. Statistical significance was assessed using a two-way ANOVA test followed by Tukey's post hoc test. For better visibility, normality, transformations, statistical tests, and p values are presented in an MS Excel sheet at https://figshare.com/s/3a0aa60b66f3f746f41e. Color code: black-free ligand (4a,b or 5a), khaki-ruthenium complex (Ru-4a,b), green-iridium complex (Ir-4a,b), blue-osmium complex (Os-4a,b or Os-5a), and red-rhodium complex (Rh-4a,b). An MTT reduction assay measures the activity of mitochondrial complex I and can be used to detect toxicity ([[…] et al., 2016]). The assay was performed in a manner similar to that described by [[…] et al. (2023b)]. Briefly, cells were plated into 96-well plates the day before the assay. Cells were treated with the compounds for 4 h; then, MTT was added to a 0.5 mg/mL final concentration, and cells were incubated at 37°C in a cell incubator for 40-60 min, as a function of the cell line being assessed. The culture medium was removed, the reduced MTT dye was dissolved in dimethylsulfoxide, and plates were measured in a plate photometer (Thermo Scientific Multiscan GO spectrophotometer, Waltham, MA, United States) at 540 nm. […] In calculations, the readings for these wells were considered to 1, and all readings were expressed relative to these values. […]

Structure (SMILES)	A2780 MTT max % (A2780 cells)	Fibroblast MTT max % [1]
OC[C@H]1O[C@H](n2cc(-c3ccccn3)nn2)[C@H](O)[C@@H](O)[C@@H]1O [Complex 3a, 1-(α-D-Glucopyranosyl)-4-(pyridin-2-yl)-1,2,3-triazole]	0%	–
O=C(OC[C@H]1O[C@H](n2cc(-c3ccccn3)nn2)[C@H](OC(=O)c2ccccc2)[C@@H](OC(=O)c2ccccc2)[C@@H]1OC(=O)c1ccccc1)c1ccccc1 [Complex 4a, 1-(2’,3’,4’,6’-Tetra-O-benzoyl-α-D-glucopyranosyl)-4-(pyridin-2-yl)-1,2,3-triazole]	0%	0%
O=C(OC[C@H]1O[C@H](n2cc(-c3ccc4ccccc4n3)nn2)[C@H](OC(=O)c2ccccc2)[C@@H](OC(=O)c2ccccc2)[C@@H]1OC(=O)c1ccccc1)c1ccccc1 [Complex 4b, 1-(2’,3’,4’,6’-Tetra-O-benzoyl-α-D-glucopyranosyl)-4-(quinolin-2-yl)-1,2,3-triazole]	0%	0%
CCCCC(=O)OC[C@H]1O[C@H](n2cc(-c3ccccn3)nn2)[C@H](OC(=O)CCCC)[C@@H](OC(=O)CCCC)[C@@H]1OC(=O)CCCC [Complex 5a, 1-(2’,3’,4’,6’-Tetra-O-pentanoyl-α-D-glucopyranosyl)-4-(pyridin-2-yl)-1,2,3-triazole]	0%	15.72%

— PMC12434071, “Platinum-group metal half-sandwich complexes of 1-(α-D-glucopyranosyl)-4-hetaryl-1,2,3-triazoles: synthesis, solution equilibrium studies, and investigation of their anticancer and antimicrobial activities” (Frontiers in Chemistry, 2025)
